# *1 amine or outer side, *2 acyl side, *3 side chain or, on linkers, in order; H or OH if unused. Where a SMILES comes first, the peptide text is derived from it. Bridges are numbered along the chain shown (N, C = ends). [ ]: non-standard residue; d: D form. The star is where a group is joined. Phe(3-OMe,4-CONHMs) = COc1cc(C[C@H](N)C(=O)O)ccc1C(=O)NS(C)(=O)=O; NMeHph(3-OMe-4-CONHMe) = CNC(=O)c1ccc(CC[C@H](NC)C(=O)O)cc1OC; Phe(3-CONHMe,4-OMe) = CNC(=O)c1cc(C[C@H](N)C(=O)O)ccc1OC; Phe(3-OMe,4-CONHMe) = CNC(=O)c1ccc(C[C@H](N)C(=O)O)cc1OC; NMeAbu(4-morpholino) = CN[C@@H](CCN1CCOCC1)C(=O)O; NMePhe(3-Cl) = CN[C@@H](Cc1cccc(Cl)c1)C(=O)O; X12 = O=C([C@H](CCCC(O)C(F)(F)F)N[*:1])[*:2]; Tyr(3-OMe) = COc1cc(C[C@H](N)C(=O)O)ccc1O; NMehPhe = CN[C@@H](CCc1ccccc1)C(=O)O; X9 = O=C([C@@H](CN[*:1])COCCO)[*:2]; Propyl(2,2-Me2,3-OH) = CC(C)(CO)C*; X7 = O=C(C[C@H](COCCO)N[*:1])[*:2]; NMeF = CN[C@@H](Cc1ccccc1)C(=O)O; NMeGABA = CN(CCCC(=O)[*:2])[*:1]; NMeI = CC[C@H](C)[C@H](NC)C(=O)O; NMeβAla = CN(CCC(=O)[*:2])[*:1]; Butyl(3-Me,3-OH) = CC(C)(O)CC*; NMeD = CN[C@@H](CC(=O)O)C(=O)O; CH2CH(OH)CF3 = OC(C*)C(F)(F)F; NMeL = CN[C@@H](CC(C)C)C(=O)O; NMeV = CN[C@H](C(=O)O)C(C)C; NMeAbu = CC[C@H](NC)C(=O)O; NMeA = CN[C@@H](C)C(=O)O; Piperidide = C1CCN(*)CC1; dAbu = CC[C@@H](N)C(=O)O; NBuGly = CCCCNCC(=O)O; NPrGly = CCCNCC(=O)O; Propyl(3-OH) = OCCC*; Sar = CNCC(=O)O; tBu = CC(C)(C)*
# Assay: in vitro
# Details: human, Caco-2, Caco-2
row,SMILES,Papp [×10⁻⁶ cm/s]
1,CCCCN1CC(=O)N(C)[C@@H](CCN2CCOCC2)C(=O)N[C@H](C(=O)N2CCCCC2)CC(=O)N(C)[C@@H](C)C(=O)N[C@@H](CC(C)C)C(=O)N(C)[C@@H](CC(C)C)C(=O)N(C)[C@@H](Cc2ccccc2)C(=O)N[C@@H](CC(C)C)C(=O)N(C)[C@@H](Cc2ccccc2)C(=O)N(C)[C@@H](CC(C)C)C(=O)N[C@@H]([C@@H](C)O)C1=O [pd454] ([NMeA]L[NMeL][NMeF]L[NMeF][NMeL]T[NBuGly][NMeAbu(4-morpholino)]D-Piperidide; lactam N-11),1.2

# Same assay, conditions: human, Caco-2, Caco-2 (cm/sec)
row,SMILES,Papp [×10⁻⁶ cm/s]
1,"CCCCN1CC(=O)N(C)[C@@H](CC(C)C)C(=O)N[C@@H](COC(C)(C)C)C(=O)N(C)[C@@H](Cc2ccccc2)C(=O)N(C)[C@@H](CC(C)C)C(=O)N[C@H](C(=O)N2CCCCC2)CC(=O)N[C@H](C(C)C)C(=O)N(C)[C@@H](C(C)C)C(=O)N[C@@H](Cc2ccc(C(=O)NS(C)(=O)=O)c(OC)c2)C(=O)N(C)[C@@H](CC(C)C)C(=O)N[C@@H]([C@@H](C)O)C1=O [AP135] ([dV][NMeV][Phe(3-OMe,4-CONHMs)][NMeL]T[NBuGly][NMeL]S(tBu)[NMeF][NMeL]D-Piperidide; lactam N-11)",0.88
2,"CC(C)C[C@H]1C(=O)N[C@@H]([C@@H](C)O)C(=O)N(C)CC(=O)N(C)[C@@H](Cc2cccc(Cl)c2)C(=O)N(C)[C@@H](CC(C)C)C(=O)N[C@@H](COC(C)(C)C)C(=O)N(C)[C@@H](CC(C)C)C(=O)N[C@H](C(=O)N2CCCCC2)CC(=O)N(C)CC(=O)N(C)[C@@H](CCc2ccccc2)C(=O)N[C@@H](COCCC(C)(C)O)C(=O)N1C [AP57] ([Sar][NMehPhe]S(Butyl(3-Me,3-OH))[NMeL]T[Sar][NMePhe(3-Cl)][NMeL]S(tBu)[NMeL]D-Piperidide; lactam N-11)",0.83
3,CCCCN1CC(=O)N(C)[C@@H](CC(C)C)C(=O)N[C@@H](COCCCO)C(=O)N(C)[C@@H](Cc2cccc(Cl)c2)C(=O)N(C)[C@@H](CC(C)C)C(=O)N[C@H](C(=O)N2CCCCC2)CC(=O)N[C@H](C(C)C)C(=O)N(C)[C@@H](Cc2ccccc2)C(=O)N[C@@H](CC(C)C)C(=O)N(C)[C@@H](CC(C)C)C(=O)N[C@@H]([C@@H](C)O)C1=O [AP98] ([dV][NMeF]L[NMeL]T[NBuGly][NMeL]S(Propyl(3-OH))[NMePhe(3-Cl)][NMeL]D-Piperidide; lactam N-11),0.16
4,CNC(=O)c1ccc(CC[C@H]2C(=O)N(C)[C@@H](CC(C)C)C(=O)N[C@@H]([C@@H](C)O)C(=O)N(C)CC(=O)N(C)[C@@H](CC(C)C)C(=O)N[C@H](C(=O)N3CCCCC3)CC(=O)N(C)[C@@H](C)C(=O)N[C@@H](CC(C)C)C(=O)N(C)[C@@H](CC(C)C)C(=O)N(C)[C@@H](Cc3ccccc3)C(=O)N[C@@H](CC(C)C)C(=O)N2C)cc1OC [AP230] ([NMeA]L[NMeL][NMeF]L[NMeHph(3-OMe-4-CONHMe)][NMeL]T[Sar][NMeL]D-Piperidide; lactam N-11),0.96
5,"CCCCN1CC(=O)N(C)[C@@H](CC(C)C)C(=O)N(C)[C@@H](CC(C)C)C(=O)N[C@@H](COC(C)(C)C)C(=O)N(C)[C@@H](CC(C)C)C(=O)N[C@H](C(=O)N2CCCCC2)CC(=O)N(C)CC(=O)N(C)[C@@H](Cc2cccc(Cl)c2)C(=O)N[C@@H](Cc2ccc(OC)c(C(=O)NC)c2)C(=O)N(C)[C@@H](CC(C)C)C(=O)N[C@@H]([C@@H](C)O)C1=O [AP41] ([Sar][NMePhe(3-Cl)][Phe(3-CONHMe,4-OMe)][NMeL]T[NBuGly][NMeL][NMeL]S(tBu)[NMeL]D-Piperidide; lactam N-11)",0.45
6,CCCN1CC(=O)N(C)[C@@H](CC(C)C)C(=O)N[C@@H](CC(C)C)C(=O)N(C)[C@@H](Cc2ccccc2)C(=O)N(C)[C@@H](CC(C)C)C(=O)N[C@H](C(=O)N2CCCCC2)CC(=O)N[C@H](CC(C)C)C(=O)N(C)[C@@H](Cc2ccccc2)C(=O)N[C@@H](COCCO)CC(=O)N(C)[C@@H](CC(C)C)C(=O)N[C@@H]([C@@H](C)O)C1=O [AP20] ([dL][NMeF][X7][NMeL]T[NPrGly][NMeL]L[NMeF][NMeL]D-Piperidide; lactam N-11),0.37
7,"CCCCN1CC(=O)N(C)[C@@H](CC(C)C)C(=O)N[C@@H](COC(C)(C)C)C(=O)N(C)[C@@H](Cc2ccccc2)C(=O)N(C)[C@@H](CC(C)C)C(=O)N[C@H](C(=O)N2CCCCC2)CC(=O)N[C@H](CC)C(=O)N(C)[C@@H](Cc2ccccc2)C(=O)N[C@@H](COCC(C)(C)CO)C(=O)N(C)[C@@H](CC(C)C)C(=O)N[C@@H]([C@@H](C)O)C1=O [AP117] ([dAbu][NMeF]S(Propyl(2,2-Me2,3-OH))[NMeL]T[NBuGly][NMeL]S(tBu)[NMeF][NMeL]D-Piperidide; lactam N-11)",0.36
8,CC[C@H](C)[C@@H]1NC(=O)[C@H](CC(C)C)N(C)C(=O)CCCN(C)C(=O)C[C@@H](C(=O)N2CCCCC2)NC(=O)[C@H](CC(C)C)N(C)C(=O)[C@H](CC(C)C)N(C)C(=O)[C@H]([C@@H](C)O)NC(=O)[C@H](CC(C)C)N(C)C(=O)[C@H](COC(C)(C)C)NC(=O)[C@H](Cc2ccccc2)N(C)C(=O)[C@H](CCc2ccc(C(=O)NC)c(OC)c2)N(C)C1=O [AP227] ([NMeGABA][NMeL]I[NMeHph(3-OMe-4-CONHMe)][NMeF]S(tBu)[NMeL]T[NMeL][NMeL]D-Piperidide; lactam N-11),0.48
9,CCCCN1CC(=O)N(C)[C@@H](CC(C)C)C(=O)N[C@@H](COC(C)(C)C)C(=O)N(C)[C@@H](Cc2ccccc2)C(=O)N(C)[C@@H](CC(C)C)C(=O)N[C@H](C(=O)N2CCCCC2)CC(=O)N[C@H](CC(C)C)C(=O)N(C)[C@@H](Cc2ccccc2)C(=O)N[C@@H](COCCCO)C(=O)N(C)[C@@H](CC(C)C)C(=O)N[C@@H]([C@@H](C)O)C1=O [AP89] ([dL][NMeF]S(Propyl(3-OH))[NMeL]T[NBuGly][NMeL]S(tBu)[NMeF][NMeL]D-Piperidide; lactam N-11),0.12
10,CC[C@H](C)[C@@H]1NC(=O)[C@H](CC(C)C)N(C)C(=O)CCCN(C)C(=O)C[C@@H](C(=O)N2CCCCC2)NC(=O)[C@H](CC(C)C)N(C)C(=O)[C@H](CC(C)C)N(C)C(=O)[C@H]([C@@H](C)O)NC(=O)[C@H](CC(C)C)N(C)C(=O)[C@H](COCCO)CNC(=O)[C@H](CC(C)C)N(C)C(=O)[C@H](Cc2cccc(Cl)c2)N(C)C1=O [AP130] ([NMeGABA][NMeL]I[NMePhe(3-Cl)][NMeL][X9][NMeL]T[NMeL][NMeL]D-Piperidide; lactam N-11),0.46
11,CC(C)C[C@@H]1NC(=O)[C@H](Cc2ccccc2)N(C)C(=O)[C@H](C)NC(=O)C[C@@H](C(=O)N2CCCCC2)N(C)C(=O)[C@H](Cc2ccccc2)N(C)C(=O)[C@H](Cc2ccccc2)N(C)C(=O)[C@H](COC(C)(C)C)NC(=O)[C@H](CC(C)C)N(C)C(=O)CN(C)C(=O)[C@H]([C@@H](C)O)NC(=O)[C@H](CC(C)C)N(C)C1=O [pd209] (A[NMeF]L[NMeL]T[Sar][NMeL]S(tBu)[NMeF][NMeF][NMeD]-Piperidide; lactam N-11),1.7
12,"CC[C@H](C)[C@@H]1NC(=O)[C@H](CC(C)C)N(C)C(=O)CN(C)C(=O)C[C@@H](C(=O)N2CCCCC2)NC(=O)[C@H](CC(C)C)N(C)C(=O)[C@H](Cc2ccc(C(=O)NC)c(OC)c2)NC(=O)[C@H](CC(C)C)N(C)C(=O)[C@H](Cc2cccc(Cl)c2)N(C)C(=O)CN(C)C(=O)[C@H]([C@@H](C)O)NC(=O)[C@H](CC(C)C)N(C)C1=O [AP34] ([Sar][NMeL]I[NMeL]T[Sar][NMePhe(3-Cl)][NMeL][Phe(3-OMe,4-CONHMe)][NMeL]D-Piperidide; lactam N-11)",0.2
13,CC[C@H](C)[C@@H]1NC(=O)[C@H](CC(C)C)N(C)C(=O)CCCN(C)C(=O)C[C@@H](C(=O)N2CCCCC2)NC(=O)[C@H](CC(C)C)N(C)C(=O)[C@H](CC(C)C)N(C)C(=O)[C@H]([C@@H](C)O)NC(=O)[C@H](CC(C)C)N(C)C(=O)[C@H](Cc2ccc(O)c(OC)c2)NC(=O)[C@H](CC(C)C)N(C)C(=O)[C@H](Cc2ccccc2)N(C)C1=O [Compound E03] ([NMeGABA][NMeL]I[NMeF][NMeL][Tyr(3-OMe)][NMeL]T[NMeL][NMeL]D-Piperidide; lactam N-11),0.18

# Same assay, conditions: human, Caco-2, Caco-2 (cm/sec) Papp
row,SMILES,Papp [×10⁻⁶ cm/s]
1,CC[C@H](C)[C@@H]1NC(=O)[C@H](Cc2ccccc2)N(C)C(=O)[C@H](C)N(C)C(=O)[C@H](CC(C)C)N(C)C(=O)[C@H](Cc2ccccc2)N(C)C(=O)CCN(C)C(=O)C[C@@H](C(=O)N(C)[C@@H](Cc2ccccc2)C(=O)N(C)[C@@H](Cc2ccccc2)C(=O)N[C@@H](C)C(=O)N2CCCCC2)NC(=O)[C@H]([C@@H](C)O)NC(=O)[C@H](CC(C)C)N(C)C(=O)[C@H](CC(C)C)N(C)C1=O [pd239] ([NMeβAla][NMeF][NMeL][NMeA][NMeF]I[NMeL][NMeL]TD[NMeF][NMeF]A-Piperidide; lactam N-10),0.065

# Same assay, conditions: human, Caco-2, Caco-2 (membrane permeability)
row,SMILES,Papp [×10⁻⁶ cm/s]
1,CC[C@H](C)[C@H]1C(=O)N[C@@H]([C@@H](C)O)C(=O)N(C)CC(=O)N(C)[C@@H](CC(C)C)C(=O)N[C@H](C(=O)N2CCCCC2)CC(=O)N(C)[C@@H](C(C)C)C(=O)N[C@@H](CC(C)C)C(=O)N(C)[C@@H](CC(C)C)C(=O)N(C)[C@@H](Cc2ccccc2)C(=O)N[C@@H](CCCC(O)C(F)(F)F)C(=O)N(C)[C@@H](Cc2ccccc2)C(=O)N1C (stereo partly drawn) [Compound D05] ([NMeV]L[NMeL][NMeF][X12][NMeF][NMeI]T[Sar][NMeL]D-Piperidide; lactam N-11),0.36
2,CCCCN1CC(=O)N(C)[C@@H](Cc2ccccc2)C(=O)N[C@@H](CCC(=O)NC)C(=O)N(C)[C@@H](CC(C)C)C(=O)N[C@@H]([C@@H](C)O)C(=O)N(CCCC)CC(=O)N(C)[C@@H](Cc2ccccc2)C(=O)N(C)[C@@H](CC(C)C)C(=O)N[C@@H](CC(C)C)C(=O)N(C)[C@@H]([C@@H](C)CC)C(=O)N[C@H](C(=O)N2CCCCC2)CC1=O [Compound J05] ([NBuGly][NMeF]E(NHMe)[NMeL]T[NBuGly][NMeF][NMeL]L[NMeI]D-Piperidide; lactam N-11),0.052
3,CC[C@H]1C(=O)N(C)[C@@H](Cc2ccccc2)C(=O)N[C@@H](CC(C)C)C(=O)N(C)[C@@H](Cc2ccccc2)C(=O)N(C)[C@@H](C(C)C)C(=O)N[C@@H](COCC(O)C(F)(F)F)C(=O)N(C)CC(=O)N(C)[C@@H](CC(C)C)C(=O)N[C@H](C(=O)N2CCCCC2)CC(=O)N(C)[C@@H](C)C(=O)N[C@@H](CC(C)C)C(=O)N1C (stereo partly drawn) [Compound C14] ([NMeA]L[NMeAbu][NMeF]L[NMeF][NMeV]S(CH2CH(OH)CF3)[Sar][NMeL]D-Piperidide; lactam N-11),2
